Reference: paper PMC10291552, “Computational Design, Synthesis, and Biological Evaluation of Diimidazole Analogues Endowed with Dual PCSK9/HMG-CoAR-Inhibiting Activity” (Journal of Medicinal Chemistry, 2023)

How the values were obtained:
Assay type in all cases: cell-based, human
HepG2 cells = assay: HepG2 cell viability (MTT assay); conditions: 48 h treatment, 0.1 nM to 10 μM, versus control cells
Experimental: Figure 3 HepG2 cell viability after the Dim3 (A) and Dim16 (B) treatments. Bar graphs indicating the results of the cell viability assay of HepG2 cells after Dim3 and Dim16 (0.1–10,000 nM) treatment for 48 h. The data points represent the mean ± SD of the three experiments in triplicate. ns: not significant.
The HepG2 cell line was bought from ATCC (HB-8065, ATCC from LGC Standards, Milan, Italy) and cultured in DMEM high glucose with stable L-glutamine supplemented with 10% FBS, 100 U/mL penicillin, and 100 μg/mL streptomycin (complete growth medium) with incubation at 37 °C under a 5% CO2 atmosphere.

[1] = system: LDLR localized on HepG2 surfaces; assay: In-cell Western assay of LDLR on the HepG2 cell surface in the presence of PCSK9; conditions: for LDLR levels on HepG2 surface: co-incubated with PCSK9 4 μg/mL, relative to untreated control cells; for fold more active than Rim13: LDLR restoration and LDL uptake in HepG2 cells, versus Rim13 ref 25
Experimental: For the experiments, a total of 3 × 10^4 HepG2 cells/well were seeded in 96-well plates. The following day, the cells were washed with PBS and then starved overnight (O/N) in DMEM without FBS and antibiotics. After starvation, the HepG2 cells were treated with 4.0 μg/mL PCSK9-WT and 4.0 μg/mL PCSK9 + diimidazole analogues and vehicle (H2O) for 2 h at 37 °C under a 5% CO2 atmosphere. Subsequently, they were fixed in 4% paraformaldehyde for 20 min at room temperature (RT). Cells were washed 5 times with 100 μL of PBS/well (each wash was for 5 min at RT), and the endogenous peroxide activity was quenched by adding 3% H2O2 for 20 min at RT. Non-specific sites were blocked with 100 μL/well of 5% bovine serum albumin (BSA, Sigma) in PBS for 1.5 h at RT. LDLR primary antibody solution (1:3000 in 5% BSA in PBS, 25 μL/well) was incubated O/N at +4 °C. Subsequently, the primary antibody solution was discarded, and each sample was washed 5 times with 100 μL/well of PBS (each wash was for 5 min at RT). Goat anti-rabbit Ig-HRP secondary antibody solution (Santa Cruz) (1:6000 in 5% BSA in PBS, 50 μL/well) was added and incubated 1 h at RT. The secondary antibody solution was washed 5 times with 100 μL/well of PBS (each wash for 5 min at RT). Freshly prepared TMB substrate (Pierce, 100 μL/well) was added, and the plate was incubated at RT until the desired color was developed. The reaction was stopped with 2 M H2SO4, and then the absorbance at 450 nm was measured using a microplate reader (Synergy H1, Winooski, VT, USA). After the reading, the cells were stained by adding 1× Janus Green stain, incubating for 5 min at RT. The dye was removed, and the sample was washed 5 times with water. Afterward, 100 μL of 0.5 M HCl for well was added, and the solution was incubated for 10 min. After 10 s of shaking, the OD at 595 nm was measured using the microplate reader (Synergy H1, Winooski, VT, USA).

platelet-rich plasma = assay: Platelet aggregation by light transmission aggregometry (PCSK9-potentiated, epinephrine-induced); conditions: 10 nM preincubated with PCSK9 5 μg/mL; epinephrine 0.16 μM; n = 5 healthy donors
Experimental: Whole blood (WB) was drawn with a 19-gauge needle without venous stasis into citrate (1/10 volume of 0.129 M sodium citrate), discarding the first 4 mL. Platelet-rich plasma (PRP) was obtained by centrifuging whole blood for 10 min at 100g without breaks at room temperature as previously described.[44]
Platelet function was assessed by light transmission aggregometry using PAP-8 aggregometer (BioData). Lag time and area under the curve (AUC) were used as the main parameters describing the kinetic of platelet aggregation as previously described.[3] Briefly, PRP was preincubated with PCSK9 (5 μg/mL, 2 min at 37 °C) followed by epinephrine (0.16 μM) stimulation. To test the effect of Dim16 on PCSK9-dependent platelet aggregation, PCSK9 was preincubated with Dim16 (10 nM) for 15 min at room temperature and then added to PRP.

Row | SMILES | HepG2 cell vitality (HepG2 cells) | LDLR levels on HepG2 surface ([1]; 1 nM) | LDLR levels on HepG2 surface ([1]; 10 nM) | fold more active than Rim13 [1] | effect on PCSK9 potentiation of platelet aggregation (lag time, AUC) (platelet-rich plasma) | fold more effective than Dim3 in restoring LDLR protein level on cell surface ([1]; cellular level, Figure 4)
1 | C#Cc1ncc(-c2ncc(-c3ccc4ccccc4c3)n2CCCC(C)(C)C)n1CCCCCNC [Dim3, 5-(1-(4,4-Dimethylpentyl)-2′-ethynyl-5-(naphthalen-2-yl)-1H,3′H-[2,4′-biimidazol]-3′-yl)-N-methylpentan-1-amine] | safe for HepG2 cells and safe | 77.87 ± 3.04% | 101.1 ± 15.06% | 100 | – | –
2 | CNCCCCCn1c(-c2ncc(-c3ccc4ccccc4c3)n2CCCC(C)(C)C)cnc1I [Dim16, 5-(1-(4,4-Dimethylpentyl)-2′-iodo-5-(naphthalen-2-yl)-1H,3′H-[2,4′-biimidazol]-3′-yl)-N-methylpentan-1-amine] | safe for HepG2 cells and safe | 91.1 ± 2.22% | 87.17 ± 7.42% | 100 | significantly prevented | 10
